Laboratory results as given in PMC6150229, “Simultaneous Determination of Twenty-Five Compounds in Rat Plasma Using Ultra-High Performance Liquid Chromatography-Polarity Switching Tandem Mass Spectrometry and Its Application to a Pharmacokinetic Study” (Molecules : A Journal of Synthetic Chemistry and Natural …, 2017).
Read-outs that look alike come from different tables or passages of the source.

What was measured:
[1] = male, Sprague-Dawley, rat, in vivo, po, 8 g/kg
Experimental: (§1) Twelve male Spargue-Dawley rats (200 ± 20 g) were supplied by Vital River Laboratory Animal Technology Co. Ltd. (Beijing, China). […] The rats were acclimated under a humidity (50%) controlled room at 22–25 °C with a 12 h light-dark cycle, and standard diet and water were provided ad libitum for one week.
(§2) Afterwards, all rats were randomly divided into two groups, namely sham and model groups. The myocardial ischemia model was simulated by left anterior descending (LAD) coronary artery ligation [12], whilst the rats belonging to the sham group received the similar surgery, however no actual ligation in LAD. All animals were fasted overnight with free access to water prior to oral dosing. Aliquots (250 μL) of blood were sampled at 0 (pre-dose), 0.08, 0.25, 0.5, 0.75, 1, 1.5, 2, 4, 6, 8, 12, and 24 h from venous around eye socket into heparinized tubes after a single oral dosing of 8.0 g/kg of QSKL and the collected blood samples were immediately subjected for 4000 rpm centrifugation for 10 min at 4 °C to harvest the plasma samples. Each 100 μL aliquot of plasma sample was transferred into another Eppendorf tube and stored at −80 °C till use.
(§3) When analysis, 300 μL of internal standards (200 ng/mL for either internal standard) fortified ACN, corresponding to three volumes of plasma, was spiked into each thawed plasma sample and mixed thoroughly. Then, the resulting samples were processed as those calibration samples.
(§4) Individual animal plasma concentrations versus time dataset were subjected to a non-compartmental pharmacokinetic analysis using WinNonlin software (ver. 6.4, Pharsight Corp., Sunnyvale, CA, USA). The pharmacokinetic parameters of each analyte including the maximum plasma concentration (Cmax), the time at which Cmax was achieved (Tmax), the terminal elimination half-life (t1/2), and the area under the plasma concentration versus time curve (AUC0→t along with AUC0→∞) were calculated. Moreover, Lz corresponding to the ratio of the dosage and AUC0→∞, as well as mean residence time (MRT) that was defined as the ratio of the area under the first moment curve from time 0 to infinity (AUMC0→∞/AUC0→∞) was also calculated. All results are expressed as mean ± SD. Comparisons regarding the pharmacokinetic parameters were carried out between sham and model groups using Student’s t-test, and p values less than 0.05 were considered to be significant.

[2] = in vivo; settings: male, Sprague-Dawley, rat, po, 8 g/kg; for AUC(0-t): AUC0–t; for AUC(0-inf): AUC0–∞
Experimental: as §1, §2, §3, §4

[3] = Pharmacokinetic study in sham and myocardial ischemia model rats after a single oral dose of QSKL (UHPLC-psMS/MS of plasma, non-compartmental analysis); settings: QSKL-treated plasma samples, sham and model rats, single oral dose 8.0 g/kg
Experimental: as §1, §2, §3, §4

[4] = model group (MG, myocardial ischemia) rats, oral administration of QSKL, plasma, mean ± SD, n = 6
[5] = sham group (SG) rats, oral administration of QSKL, plasma, mean ± SD, n = 6
[6] = t1/2, model group (MG, myocardial ischemia) rats, oral administration of QSKL, plasma, mean ± SD, n = 6
[7] = t1/2, sham group (SG) rats, oral administration of QSKL, plasma, mean ± SD, n = 6

Structure (SMILES): C[C@H]1COC2=C1C(=O)C(=O)c1c2ccc2c1CCCC2(C)C [cryptotanshinone]
- AUC0–t [1]: 10.2 ± 2.21 ng·h/mL
- AUC0–∞ [1]: 16.4 ± 8.86 ng·h/mL
- MRT [1]: 25.6 ± 20.1 h
- AUC(0-t) [2]: 8.77 ± 2.26 ng·h/mL
- AUC(0-inf) [2]: 12 ± 5.01 ng·h/mL
- Cmax [2]: 0.898 ± 0.29 ng/mL
- MRT [2]: 19.3 ± 6.01 h
- half-life ([2]; t1/2): 12.2 ± 5.2 h

Structure (SMILES): Cc1coc2c1C(=O)C(=O)c1c-2ccc2c(C)cccc12 [tanshinone I]
- AUC0–t [1]: 4.54 ± 1.58 ng·h/mL
- AUC(0-t) [2]: 3.62 ± 0.763 ng·h/mL
- AUC(0-inf) [2]: 5.58 ± 2.56 ng·h/mL
- Cmax [2]: 0.297 ± 0.115 ng/mL
- MRT [2]: 18.2 ± 2.76 h
- Tmax [2]: 8 h
- half-life ([2]; t1/2): 10.7 ± 1.2 h

Structure (SMILES): O=C1C[C@@H](c2ccc(O[C@@H]3O[C@H](CO)[C@@H](O)[C@H](O)[C@H]3O)cc2)Oc2cc(O)ccc21 [liquiritin]
- AUC0–t [1]: 7.66 ± 2.60 ng·h/mL
- AUC0–∞ [1]: 9.14 ± 4.02 ng·h/mL
- MRT [1]: 10.2 ± 5.77 h
- AUC(0-t) [2]: 6.01 ± 1.52 ng·h/mL
- AUC(0-inf) [2]: 7.37 ± 2.08 ng·h/mL
- MRT [2]: 10.3 ± 2.3 h
- Tmax [2]: 0.29 ± 0.17 h
- half-life ([2]; t1/2): 5.76 ± 0.36 h

Structure (SMILES): Cc1cccc2c3c(ccc12)C1=C(C(=O)C3=O)[C@@H](C)CO1 [dihydrotanshinone I]
- AUC0–t [1]: 4.67 ± 2.23 ng·h/mL
- AUC0–∞ [1]: 5.98 ± 5.34 ng·h/mL
- MRT [1]: 14.8 ± 9.29 h
- AUC(0-t) [2]: 4.99 ± 2.18 ng·h/mL
- AUC(0-inf) [2]: 4.47 ± 0.864 ng·h/mL
- Cmax [2]: 0.618 ± 0.25 ng/mL
- MRT [2]: 8.22 ± 1.2 h
- Tmax [2]: 8 h
- half-life ([2]; t1/2): 3.9 ± 0.858 h

Structure (SMILES): O=C1C[C@@H](c2ccc(O)cc2)Oc2cc(O)ccc21 [liquiritigenin]
- AUC0–t [1]: 2.53 ± 0.662 ng·h/mL
- AUC0–∞ [1]: 2.81 ± 0.98 ng·h/mL
- MRT [1]: 9.83 ± 4.37 h
- AUC(0-t) [2]: 2.11 ± 1.73 ng·h/mL
- AUC(0-inf) [2]: 2.22 ± 1.98 ng·h/mL
- Cmax [2]: 0.347 ± 0.276 ng/mL
- MRT [2]: 8.48 ± 1.07 h
- half-life ([2]; t1/2): 3.9 ± 1.03 h

Structure (SMILES): C=C[C@H]1[C@H](O[C@@H]2O[C@H](CO)[C@@H](O)[C@H](O)[C@H]2O)OC=C2C(=O)OCC[C@H]21 [sweroside]
- AUC0–t [1]: 247 ± 58.0 ng·h/mL
- AUC0–∞ [1]: 281 ± 53.4 ng·h/mL
- AUC(0-t) [2]: 210 ± 75.7 ng·h/mL
- AUC(0-inf) [2]: 294 ± 94.2 ng·h/mL
- Cmax [2]: 28.9 ± 14.3 ng/mL
- Tmax [2]: 1.58 ± 1.31 h

Structure (SMILES): O=c1cc(-c2ccc(O)c(O)c2)oc2cc(O[C@@H]3O[C@H](CO)[C@@H](O)[C@H](O)[C@H]3O)cc(O)c12 [luteoloside]
- AUC0–t [1]: 0.493 ± 0.147 ng·h/mL
- AUC0–∞ [1]: 0.869 ± 0.272 ng·h/mL
- MRT [1]: 29.4 ± 17.5 h
- AUC(0-t) [2]: 0.406 ± 0.055 ng·h/mL
- AUC(0-inf) [2]: 1.06 ± 0.47 ng·h/mL
- MRT [2]: 50.5 ± 26.9 h
- Tmax [2]: 0.5 ± 0.33 h
- half-life ([2]; t1/2): 36.5 ± 16.8 h

Structure (SMILES): COCC12CN(C)C3C4C(OC)C1C3(C(OC)CC2O)C1CC2(O)C(OC)C(O)C4(O)C1C2OC(=O)c1ccccc1 (centres unmarked) [benzoylmesaconine]
- AUC(0-t) [2, 4]: 7.34 ± 7.1 ng·h/mL
- AUC(0-t) [2, 5]: 5.82 ± 2.93 ng·h/mL
- AUC(0-inf) [2, 4]: 11.1 ± 11 ng·h/mL
- AUC(0-inf) [2, 5]: 8.3 ± 6.14 ng·h/mL
- Cmax [2, 4]: 3.1 ± 2.49 ng/mL
- Cmax [2, 5]: 1.15 ± 0.778 ng/mL
- MRT [2, 4]: 13.7 ± 6.58 h
- MRT [2, 5]: 20.1 ± 10.3 h
- Tmax [2, 4]: 0.47 ± 0.33 h
- Tmax [2, 5]: 0.42 ± 0.37 h
- half-life [2, 6]: 9.77 ± 5.36 h
- half-life [2, 7]: 13 ± 6.34 h
- distribution in rat plasma (quantifiable or not) [3]: quantifiable in most samples

Structure (SMILES): O=C(/C=C/c1ccc(O[C@@H]2O[C@H](CO)[C@@H](O)[C@H](O)[C@H]2O)cc1)c1ccc(O)cc1O [isoliquiritin]
- AUC(0-t) [2, 4]: 1.58 ± 0.493 ng·h/mL
- AUC(0-t) [2, 5]: 1.39 ± 0.36 ng·h/mL
- AUC(0-inf) [2, 4]: 1.86 ± 0.632 ng·h/mL
- AUC(0-inf) [2, 5]: 1.64 ± 0.474 ng·h/mL
- Cmax [2, 4]: 0.85 ± 0.761 ng/mL
- Cmax [2, 5]: 0.389 ± 0.167 ng/mL
- MRT [2, 4]: 10.2 ± 4.65 h
- MRT [2, 5]: 10.5 ± 3.13 h
- Tmax [2, 4]: 0.43 ± 0.36 h
- Tmax [2, 5]: 0.36 ± 0.31 h
- half-life [2, 6]: 8.28 ± 3.4 h
- half-life [2, 7]: 6.26 ± 0.976 h
- distribution in rat plasma (quantifiable or not) [3]: quantifiable in most samples
